Measurements published in patent US12616695B2, “Use of 5-amino-2,3-dihydro-1,4-phthalazinedione in the treatment of rare chronic inflammatory pulmonary diseases” (Metriopharm AG, priority 2020, dated 2026).
Like-named read-outs stand apart in the source and are kept apart here.

Tested on: cigarette smoke-induced 3-nitrotyrosine formation in the lung parenchyma
Conditions: for 3-nitrotyrosine stained surface area, mean ± SEM: n=5 mice, room air 0.24 ± 0.09, cigarette smoke + diluent 3.07 ± 0.39
Description: 5-amino-2,3-dihydro-1,4-phthalazinedione sodium salt Form I was tested in an isolated, ventilated and perfused mouse lung system that was stimulated with cigarette smoke.
The isolated, ventilated and perfused mouse lung system (ILU) is an established model for studying acute effects of various conditions and drugs on lung parenchyma and vasculature. It is mainly used for examining effects of hypoxia and for evaluating the efficacy of potential drugs on the hypoxic pulmonary vasoreaction (cf. Weissmann et al. (2006) Proc Natl Acad Sci USA 103: 19093-19098).
C57BL/6J mice (n=25, 5 per group; male/female, 3-6 months, 20-30 g; Charles River GmbH, Sulzfeld, Germany) were anesthetized with a ketamine (100 mg/kg body weight) and xylazine (20 mg/kg body weight) intraperitoneal injection (Ceva Tiergesundheit GmbH, Dusseldorf, Germany) containing heparin (50 I.E. heparin/g body weight; Ratiopharm GmbH, Ulm, Germany). The lungs and the heart were removed from the chest cavity and placed on the ILU system (see FIGS. 1A and 1B). Lungs were ventilated in an isolated chamber using normoxic gas (21% O2, 5% CO2, 74% N2; 150 breaths per minute at the PEEP (positive end-expiratory pressure) of 3 cm H2O) and perfused with a modified Krebs-Henseleit buffer (120.0 mM NaCl, 4.3 mM KCl, 1.1 mM KH2PO4, 2.4 mM CaCl2, 1.3 mM MgCl2, 13.14 mM glucose, 0.25 mM hydroxyethyl starch 200000/0.5, 25.0 mM NaHCO3 adjusted to a constant pH range of […] L-arginine; Serag-Wissner GmbH & Co. KG, Naila, Germany) at a temperature of 37° C. Lung weight, right and left ventricle pressure, as well as ventilatory pressure were monitored and recorded during the whole experimental procedure. After 5-10 minutes, when the lung was properly flushed and all the parameters were stable, 5-amino-2,3-dihydro-1,4-phthalazinedione sodium salt was applied by adding 150 μl of a stock solution to 15 ml of the circulating perfusion buffer. The substance was applied 10 minutes prior to the first cigarette smoke application. Cigarette smoke was applied via trachea while lung is perfused with the buffer containing 5-amino-2,3-dihydro-1,4-phthalazinedione sodium salt. Cigarette smoke was prepared freshly before each application, by burning one cigarette (research cigarettes 3R4F, University of Kentucky, USA) in one minute using normoxic gas at the flow of 11/min and collected in a 1 I glass bottle containing 5 g silica gel for removing the moist from the cigarette smoke. 50 ml of the cigarette smoke were taken via a syringe and applied to the lung via trachea (FIG. 1A) in deep breaths (periodic inflation for 3-4 s) over a period of 5 min. The application was done manually while carefully monitoring the inspiratory pressure to avoid damage of the lung. The cigarette smoke application was repeated three times with a 1 hour break in-between.
Five treatment groups (n=5, respectively) were investigated: • A: room air exposure • B: cigarette smoke+diluent (buffer solution) • C: cigarette smoke+0.5 mM 5-amino-2,3-dihydro-1,4-phthalazinedione sodium salt • D: cigarette smoke+1 mM 5-amino-2,3-dihydro-1,4-phthalazinedione sodium salt • E: cigarette smoke+2 mM 5-amino-2,3-dihydro-1,4-phthalazinedione sodium salt
5-amino-2,3-dihydro-1,4-phthalazinedione sodium salt Form I was dissolved in water for injection (vehicle) at the required concentrations described above. Stock solutions were prepared in water for injection. Further 1:100 dilutions were made with modified Krebs-Henseleit buffer (see above). Stock solutions were stored at −70° C. in appropriate aliquots. The required amount of stock solution was thawed, and the corresponding working solution was prepared for immediate use.
One hour after the third cigarette smoke application lungs were removed from the system and fixed by inflating with formalin solution (via trachea) at the pressure of 12-15 cm H2O for two hours at room temperature.

## Nc1cccc2c(=O)[nH][nH]c(=O)c12.[Na] [5-amino-2,3-dihydro-1,4-phthalazinedione sodium salt]
0.5 mM in perfusion buffer (FIG. 2C)
  effect on cigarette smoke induced 3-nitrotyrosine formation (in words): moderate effect
1 mM in perfusion buffer (FIG. 2D)
  effect on cigarette smoke induced 3-nitrotyrosine formation (in words): almost completely abolished
2 mM in perfusion buffer (FIG. 2E)
  effect on cigarette smoke induced 3-nitrotyrosine formation (in words): almost completely abolished
Cigarette smoke + 0.5 mM in perfusion buffer
  3-nitrotyrosine stained surface area, mean ± SEM: 2.24 ± 0.28 % area
Cigarette smoke + 1 mM in perfusion buffer
  3-nitrotyrosine stained surface area, mean ± SEM: 0.72 ± 0.26 % area
Cigarette smoke + 2 mM in perfusion buffer
  3-nitrotyrosine stained surface area, mean ± SEM: 0.37 ± 0.13 % area
pre-treatment 10 minutes prior to the first cigarette smoke application, ILU model
  cigarette smoke-induced 3-nitrotyrosine formation in the lung parenchyma, conclusion (in words): prevents cigarette smoke-induced 3-nitrotyrosine formation
Summary over 0.5, 1 and 2 mM
  ROS/RNS levels in cigarette smoke-stimulated mouse lung (in words): dose-dependent reduction of ROS/RNS levels down to control levels
